Measurements taken from patent US20240261411A1, “PERMEATION ENHANCERS FOR GASTROINTESTINAL SYNTHETIC EPITHELIAL LININGS” (Syntis Bio, Inc., priority 2023, published 2024).

What was measured:
[1] = Franz cell permeability of semaglutide; conditions: Franz cells, porcine duodenal tissue
Description: Franz cells were used for testing different permeation enhancers on ex vivo tissue from the small intestine, such as porcine duodenal tissue (or colon tissue where indicated). Water pumps were attached to the Franz cell rack to maintain each Franz cell at 37° C. The racks were loaded with Franz cells, and each cell was filled with 5 mL of phosphate buffered saline. Tissue was cut into ˜3.2×3.2 cm squares and any large clumps of mucus or excrement was removed before mounting onto the Franz cells. Next, gastrointestinal synthetic epithelial lining (GSEL) solutions were prepared by first weighing out dopamine HCl, polydopamine, and a permeation enhancer into a vial. […] Samples from the receiving compartment was periodically collected from 0 to 24 hours and the concentration of API was measured. […]
The same experiment was carried out, except without using a permeation enhancer in the GSEL solution. The amount of API detected in the receiving compartment for GSELS with permeation enhancer was compared to the amount of API detected in the receiving compartment for GSELs without permeation enhancer at each time point to determine the increase in permeation provided by the permeation enhancer.

[2] = pig model, semaglutide pharmacokinetics after endoscopic placement or IV; set-up: species or system Yorkshire pigs; conditions: in vivo, 1.5 mg/kg
Description: Yorkshire pigs, weighing 40-80 kg each over 7 months and approximately 4-9 months of age were used. Following routine preoperative fast, pigs were anesthetized, intubated, and maintained on isoflurane anesthesia during the procedure. An indwelling marginal ear vein catheter was be inserted for blood collection, which occurred over 1-7 days. Dry GSEL powders containing permeation enhancers and semaglutide were solubilized with Tris buffer immediately before administration. An endoscope guided catheter was placed into the proximal small intestines, where the GSEL suspensions were injected. Blood was taken periodically from the ear vein catheter and the blood was immediately centrifuged down in serum collection tubes. Samples were analyzed via ELISA and LC-MS. Pigs were woken up after 6 hours and monitored until full recovery.
For the following experiment, a ratio of formulation components as presented in Table E8 was used (e.g., 2×GSEL, 6.4 mg/kg GCA, 6.4 mg/kg NHCO, with semaglutide at a final ratio of 20:2.35 permeation enhancer to semaglutide).

Compound	semaglutide permeability, comparison in words [1]	absorption, in words [2]
O=C([O-])CCCCCCCNC(=O)c1ccccc1O.[Na+] [SNAC, sodium N-[8-(2-hydroxybenzoyl)amino]caprylate]	did not promote permeation of semaglutide as much	–
CC[C@H](C)[C@H](NC(=O)[C@H](Cc1ccccc1)NC(=O)[C@H](CCC(=O)O)NC(=O)[C@H](CCCCNC(=O)COCCOCCNC(=O)COCCOCCNC(=O)CC[C@H](NC(=O)CCCCCCCCCCCCCCCCC(=O)O)C(=O)O)NC(=O)[C@H](C)NC(=O)[C@H](C)NC(=O)[C@H](CCC(N)=O)NC(=O)CNC(=O)[C@H](CCC(=O)O)NC(=O)[C@H](CC(C)C)NC(=O)[C@H](Cc1ccc(O)cc1)NC(=O)[C@H](CO)NC(=O)[C@H](CO)NC(=O)[C@@H](NC(=O)[C@H](CC(=O)O)NC(=O)[C@H](CO)NC(=O)[C@@H](NC(=O)[C@H](Cc1ccccc1)NC(=O)[C@@H](NC(=O)CNC(=O)[C@H](CCC(=O)O)NC(=O)C(C)(C)NC(=O)[C@@H](N)Cc1cnc[nH]1)[C@@H](C)O)[C@@H](C)O)C(C)C)C(=O)N[C@@H](C)C(=O)N[C@@H](Cc1c[nH]c2ccccc12)C(=O)N[C@@H](CC(C)C)C(=O)N[C@H](C(=O)N[C@@H](CCCNC(=N)N)C(=O)NCC(=O)N[C@@H](CCCNC(=N)N)C(=O)NCC(=O)O)C(C)C [Control (semaglutide only), semaglutide]	–	zero absorption
